Reference: PubChem BioAssay (NCI)
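96-well plates; 48 h exposure; 5 concentrations. Endpoints by linear interpolation between flanking doses. Not reached: highest tested concentration assigned. The concentration for 50% growth inhibition is given as GI50. At the TGI there is no net growth.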

Key:
Assay in all cases: NCI tumour cell line growth inhibition, 48 h
HOP-92 NSCLC = test system: HOP-92 NSCLC
MOLT-4 leukemia = test system: MOLT-4 leukemia
PC-3 prostate = test system: PC-3 prostate
SK-MEL-5 melanoma = test system: SK-MEL-5 melanoma
SF-539 CNS = test system: SF-539 CNS
SF-268 CNS = test system: SF-268 CNS
MALME-3M melanoma = test system: MALME-3M melanoma
A498 renal = test system: A498 renal

| Structure (SMILES) | GI50 (HOP-92 NSCLC) [nM] | TGI (HOP-92 NSCLC) [µM] | GI50 (MOLT-4 leukemia) [µM] | TGI (MOLT-4 leukemia) [µM] | GI50 (PC-3 prostate) [µM] | TGI (PC-3 prostate) [µM] | GI50 (SK-MEL-5 melanoma) [nM] | TGI (SK-MEL-5 melanoma) [µM] | GI50 (SF-539 CNS) [µM] | TGI (SF-539 CNS) [µM] | GI50 (SF-268 CNS) [nM] | TGI (SF-268 CNS) [µM] | GI50 (MALME-3M melanoma) [nM] | TGI (MALME-3M melanoma) [µM] | GI50 (A498 renal) [nM] | TGI (A498 renal) [µM] |
| --- | --- | --- | --- | --- | --- | --- | --- | --- | --- | --- | --- | --- | --- | --- | --- | --- |
| O=c1c2ccccc2c(/C=N\NC2=NCCN2)c2oc3ccccc3n12 | 22500 | 51.1 | 23.8 | > 100 | 23 | 45.6 | 21300 | 41.7 | 18.1 | 36.3 | 57800 | > 100 | – | – | – | – |
| CC(C)[C@@](O)(c1ccc2cc(OC(F)F)c(OC(F)F)cc2c1)c1cn[nH]n1 | 13800 | 30.2 | 21.7 | 70.7 | 14.9 | 36 | 14400 | 27.5 | 16.4 | 32.3 | 18600 | 49.4 | 16800 | 39.2 | – | – |
| Cc1cc(N2CCCCC2)nc(NC2CCCC(Nc3ccnc4cc(Cl)ccc34)C2)n1 (stereo not drawn) | – | – | 1.21 | 3.7 | 1.29 | 2.86 | 1640 | 3 | – | – | – | – | – | – | 1670 | 3.42 |
| COC(=O)c1ccc(/C=C(\c2ccc([N+](=O)[O-])o2)S(=O)(=O)c2ccc(NC(C)=O)cc2)o1 | – | 24 | – | 7.76 | – | 29.8 | – | 13.5 | – | 15.2 | – | 30.9 | – | 8.91 | – | – |
| CC(=O)CC/C=C(\C)[C@H](O)[C@H](C)C(=O)O[C@H]1C[C@H](C)C=C2C=C[C@@]3(C)O[C@@H](O)CC(=O)[C@]3(C)[C@H]21 | 1530 | 7.06 | – | – | 0.61 | 3.31 | 598 | 2.08 | 0.366 | 2.37 | 612 | 5.63 | 588 | 2.7 | 2550 | 7.95 |
| CCCCCCn1c(SC)nc(COC(=O)NC)c1COC(=O)NC | – | – | – | 53.8 | – | 31.8 | – | 30.3 | – | 32.4 | – | 30.6 | – | – | – | 30.8 |
| COc1ccc(C(=NN=C(N)N)c2ccc(OC)cc2)cc1 | 1900 | 7.45 | 3.89 | 16.7 | 3.04 | 14.4 | 2250 | 5.76 | – | – | 2340 | 12 | 2850 | 11.6 | 2780 | 13.3 |
| COc1ccc(C2CC(c3ccc(Nc4ccnc5cc(Cl)ccc45)cc3)=NN2C=O)cc1 (stereo not drawn) | – | – | 2.55 | 16.7 | 9.43 | > 100 | 617 | 43.2 | > 100 | > 100 | > 100000 | > 100 | > 100000 | > 100 | > 100000 | > 100 |
| Oc1c(Cl)cc(Cl)cc1/C=N/Nc1nnc(N/N=C/c2cc(Cl)cc(Cl)c2O)c2ccccc12 | 284 | – | 0.363 | > 100 | – | – | 505 | 2.2 | 0.258 | 0.64 | 407 | > 100 | 680 | > 100 | 2190 | > 100 |
| Oc1ccc2ccccc2c1N=Nc1cc(Cl)ccc1Cl | – | > 50 | – | > 50 | – | > 50 | – | > 50 | – | – | – | > 50 | – | > 50 | – | – |
